According to US10927106B2, “Benzothiazole derivatives as DYRK1 inhibitors” (PHARMASUM THERAPEUTICS AS, priority 2017, dated 2021):

How the values were obtained:
[1] = system: tau/MAPT phosphorylation in TS21 neurons; test: Tau/MAPT phosphorylation in TS21 neuronal cultures, Western blotting; format: cell-based, human; details: treated for 10 days
Description: (§1) Overexpression of DYRK1A in DS is thought to account for increased tau phosphorylation by GSK3β and the increase in DYRK1A positive neurofibrillary tangles (NFTs) in the brains of people with DS and AD. Therefore therapeutic inhibition of DYRK1A activity in DS and AD may delay the progression of neurodegeneration in DS and AD. The following experiment on reduction of tau phosphorylation by inhibition of DYRK1A by inhibitor 4-93 was performed as described in the literature (Shi, Y. et al. A human stem cell model of early Alzheimer's disease pathology in Down syndrome. Sci. Transl. Med. 4, 124ra29 (2012)).
(§2) Neuronal cultures at day 40 were treated with DYRK1A inhibitors and control compounds for 10 days. Total protein was extracted and total tau and phosphorylated tau/MAPT was quantified by Western blotting using antibodies to total tau and a number of phospho-tau epitopes.

[2] = system: tau/MAPT phosphorylation in control neurons; test: Tau/MAPT phosphorylation in control neurons, Western blotting; format: cell-based, human; details: treated for 10 days, compared to DMSO treated controls
Description: as §1, §2

DYRK1A = DYRK1A (Homo sapiens (Human), UniProt Q13627); test: IC50 determination, methodology similar to Example A (Example B); format: biochemical; details: against DYRK1A; Table 8
Description: This method is sensitive, accurate and provides a direct measure of activity.

[3] = TS21 neurons, normalised to β-actin, vs DMSO treated controls

Row | SMILES | total tau protein levels ([1]; TS21 neuronal cultures) | tau phosphorylation at Ser 396 [1, 3] | tau phosphorylation at Ser 404 [1, 3] | tau/MAPT phosphorylation at Ser 396 [2] | tau/MAPT phosphorylation at Ser 404 [2] | IC50 (DYRK1A)
1 | C[C@H](NC(=O)Cc1cc(F)cc(F)c1)C(=O)N[C@H](C(=O)OC(C)(C)C)c1ccccc1 [DAPT, reference compound] | increased | increased | increased | increased | increased | 
2 | COc1ccc(Nc2ccncc2-c2nc3cc(OC)ccc3s2)c(F)c1 [PST-131] |  |  |  |  |  | 351 nM
